Measurements: patent US8022050B2, “Compound for inhibiting TRPA1 function and use thereof” (Korea University Industry and Academic Collaboration …, priority 2008, dated 2011)

Tests used:
[1] = test system: inflammatory sensitization induced by carrageenan; assay: Sensitivity to thermal stimulation (avoidance time) in carrageenan-injected mice; assay type: in vivo; settings: 10 μl of 0.1% carrageenan 3 h before, 10 μl of 1 mM substance into hind paw, FIG. 4
Protocol: Equal amount of AP18 (Biomol, USA), the TRPA1 specific inhibitor, was injected into the positive control. Avoidance time was measured by using thermal stimulator (Ugo basile plant test, Italy). Each group was composed of 5 mice and beam injection was performed four times, which were averaged.

[2] = test system: pain induced by cinnamaldehyde; assay: Acute hind paw licking/flicking behaviors in mice (cinnamaldehyde-induced pain, normal or inflammatory condition); assay type: in vivo; settings: hind paw injection, 10 minutes, substance injected alone, FIG. 3a
Protocol: The time spent for the hind paw licking/flicking behaviors in mice were measured according to the method of Bandell M, et al. (Neuron 41:849-857, 2004) and Moqrich A, et al. (Science 307:1468-1472, 2005), for 10 minutes. • Control: non-treatment; • Experimental group 1. […] 300 μM of CA; • Experimental group 3.

SMILES	Sensitivity against thermal stimulation (avoidance time) [1]	Time spent for hind paw licking/flicking behaviors, substance alone [2]
CC(=C\c1ccc(Cl)cc1)/C(C)=N/O [AP18]	almost no effects	
O=CC=Cc1ccccc1 [cinnamaldehyde]		increased the time spent for the behaviors
